Reference: ChEMBL document CHEMBL1147544, “N-alkyl-4-[(8-azabicyclo[3.2.1]-oct-3-ylidene)phenylmethyl]benzamides, micro and delta opioid agonists: a micro address” (Bioorg Med Chem Lett, 2004)

Key:
[1] = biological target: Delta-type opioid receptor (Homo sapiens, UniProt P41143); test: In vitro binding affinity towards opioid receptor delta 1
Mu-type opioid receptor [2] = biological target: T1, Mu-type opioid receptor (Homo sapiens, UniProt P35372); test: In vitro binding affinity towards opioid receptor mu 1; set-up: species or system unidentified
Mu-type opioid receptor [3] = biological target: T1, Mu-type opioid receptor; test: Percentage stimulation of [35S]GTP-gamma-S, binding at the opioid receptor mu 1 at 10 uM; assay type: functional
Mus musculus = test: Antinociceptive activity by mouse hotplate test (55 degree C, po ); assay type: functional

Sequence of Delta-type opioid receptor (P41143 whole entry): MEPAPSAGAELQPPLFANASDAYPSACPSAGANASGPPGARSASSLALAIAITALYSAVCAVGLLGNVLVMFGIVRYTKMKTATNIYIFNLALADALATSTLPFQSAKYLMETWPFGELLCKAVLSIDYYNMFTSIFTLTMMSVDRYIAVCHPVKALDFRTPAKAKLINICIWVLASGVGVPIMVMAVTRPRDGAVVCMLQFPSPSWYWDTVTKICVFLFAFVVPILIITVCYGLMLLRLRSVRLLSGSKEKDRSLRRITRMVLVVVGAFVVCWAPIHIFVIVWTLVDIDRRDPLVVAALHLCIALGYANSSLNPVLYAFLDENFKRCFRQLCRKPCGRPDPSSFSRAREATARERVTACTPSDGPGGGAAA
T1 sequence (P35372 whole entry): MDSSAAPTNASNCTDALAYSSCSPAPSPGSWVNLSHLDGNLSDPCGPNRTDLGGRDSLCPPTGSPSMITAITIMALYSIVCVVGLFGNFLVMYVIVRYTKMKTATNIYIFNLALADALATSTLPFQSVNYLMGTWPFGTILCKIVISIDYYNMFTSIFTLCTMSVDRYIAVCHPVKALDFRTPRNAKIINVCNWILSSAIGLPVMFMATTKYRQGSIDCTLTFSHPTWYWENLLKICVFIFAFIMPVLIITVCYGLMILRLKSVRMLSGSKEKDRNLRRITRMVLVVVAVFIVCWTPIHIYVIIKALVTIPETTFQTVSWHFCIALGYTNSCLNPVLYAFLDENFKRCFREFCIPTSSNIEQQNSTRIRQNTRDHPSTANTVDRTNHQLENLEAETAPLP

SMILES	Ki [1] [µM]	Ki (Mu-type opioid receptor [2]) [µM]	Stimulation (Mu-type opioid receptor [3]) [%]	ED50 (Mus musculus) [µmol/kg]
CCNC(=O)c1ccc(C(=C2CC3CCC(C2)N3Cc2ccccc2Cl)c2cccc(O)c2)cc1	0.00209	0.015	–	–
CCNC(=O)c1ccc(C(=C2CC3CCC(C2)N3CC=C(C)C)c2cccc(O)c2)cc1	0.00202	0.00252	–	–
C=CCN1C2CCC1CC(=C(c1ccc(C(=O)NCC)cc1)c1cccc(OC)c1)C2	0.00145	0.0138	–	–
CCNC(=O)c1ccc(C(=C2CC3CCC(C2)N3Cc2ccccc2Cl)c2ccc(O)cc2)cc1	0.00093	0.00872	–	–
CCNC(=O)c1ccc(C(=C2CC3CCC(C2)N3c2cccn2C)c2ccccc2)cc1	0.0208	0.059	–	–
CCNC(=O)c1ccc(/C(=C2\C[C@H]3CC[C@@H](C2)N3CCc2ccccc2)c2ccccc2)cc1	0.0467	0.00026	490	25
CCNC(=O)c1ccc(C(=C2CC3CCC(C2)N3Cc2ccccc2Cl)c2cccc(OC)c2)cc1	0.00666	0.0577	–	–
CCNC(=O)c1ccc(/C(=C2/C[C@H]3CC[C@@H](C2)N3)c2ccccc2)cc1	0.00548	0.0747	–	–
O=C(NC1CCCCC1)c1ccc(C(=C2CC3CCC(C2)N3CCc2ccccc2)c2ccccc2)cc1	0.924	0.717	–	–
CC(C)(C)NC(=O)c1ccc(C(=C2CC3CCC(C2)N3CCc2ccccc2)c2ccccc2)cc1	0.352	0.608	–	–
CCNC(=O)c1ccc(C(=C2CC3CCC(C2)N3CCc2c[nH]c3ccccc23)c2ccccc2)cc1	0.0237	0.084	–	–
CCNC(=O)c1ccc(C(=C2CC3CCC(C2)N3CCc2ccccc2)c2ccc(O)cc2)cc1	0.0078	0.0217	–	–
CCNC(=O)c1ccc(C(=C2CC3CCC(C2)N3Cc2cccs2)c2cccc(OC)c2)cc1	0.00051	0.00379	–	–
CCNC(=O)c1ccc(/C(=C2/C[C@H]3CC[C@@H](C2)N3CCc2ccccc2)c2ccccc2)cc1	0.00469	0.00716	–	–
CCNC(=O)c1ccc(C(=C2CC3CCC(C2)N3CC=C(C)C)c2cccc(OC)c2)cc1	0.00072	0.00204	–	–
C=CCN1C2CCC1CC(=C(c1ccc(C(=O)NCC)cc1)c1cccc(O)c1)C2	0.000384	0.00958	–	–
CCNC(=O)c1ccc(/C(=C2/C[C@H]3CC[C@@H](C2)N3C)c2ccccc2)cc1	0.00639	0.0425	–	–
CCNC(=O)c1ccc(C(=C2CC3CCC(C2)N3CCc2ccccc2)c2cccc(O)c2)cc1	–	0.000222	–	–
CCNC(=O)c1ccc(C(=C2CC3CCC(C2)N3CCCc2ccccc2)c2ccccc2)cc1	0.0123	0.0048	–	–
CCNC(=O)c1ccc(C(=C2CC3CCC(C2)N3Cc2ccccc2Cl)c2ccc(OC)cc2)cc1	0.00567	0.122	–	–
CCN(CC)C(=O)c1ccc(/C(=C2\C[C@H]3CC[C@@H](C2)N3CCc2ccccc2)c2ccccc2)cc1	–	–	–	25
O=C(NC1CC1)c1ccc(C(=C2CC3CCC(C2)N3CCc2ccccc2)c2ccccc2)cc1	0.02	0.00101	–	–
COCCNC(=O)c1ccc(C(=C2CC3CCC(C2)N3CCc2ccccc2)c2ccccc2)cc1	0.103	0.163	–	–

SMILES	Ki [1] [µM]	Ki (Mu-type opioid receptor [2]) [µM]	Stimulation (Mu-type opioid receptor [3]) [%]	ED50 (Mus musculus) [µmol/kg]
CCNC(=O)c1ccc(C(=C2CC3CCC(C2)N3)c2cccc(OC)c2)cc1	0.0132	0.096	–	–
O=C(Nc1ccccc1)c1ccc(C(=C2CC3CCC(C2)N3CCc2ccccc2)c2ccccc2)cc1	1.52	4.24	–	–
CCNC(=O)c1ccc(C(=C2CC3CCC(C2)N3Cc2cccs2)c2cccc(O)c2)cc1	0.000152	0.000664	–	–
C=CCN1[C@@H]2CC[C@H]1C/C(=C(/c1ccccc1)c1ccc(C(=O)NCC)cc1)C2	0.00224	0.0105	–	–
CCNC(=O)c1ccc(C(=C2CC3CCC(C2)N3Cc2ccccn2)c2ccccc2)cc1	0.00086	0.017	–	–
CCNC(=O)c1ccc(C(=C2CC3CCC(C2)N3Cc2cccs2)c2ccc(OC)cc2)cc1	0.00132	0.0135	–	–
CCNC(=O)c1ccc(C(=C2CC3CCC(C2)N3CCO)c2ccccc2)cc1	0.0262	0.076	–	–
CCCCNC(=O)c1ccc(C(=C2CC3CCC(C2)N3CCc2ccccc2)c2ccccc2)cc1	0.0493	0.0217	–	–
CCNC(=O)c1ccc(C(=C2CC3CCC(C2)N3CCc2ccccc2)c2cccc(OC)c2)cc1	0.0198	0.000654	–	–
CNC(=O)c1ccc(C(=C2CC3CCC(C2)N3CCc2ccccc2)c2ccccc2)cc1	0.013	0.00014	–	–
CCNC(=O)c1ccc(C(=C2CC3CCC(C2)N3Cc2cccs2)c2ccc(O)cc2)cc1	0.00025	0.00677	–	–
O=C(NCCF)c1ccc(C(=C2CC3CCC(C2)N3CCc2ccccc2)c2ccccc2)cc1	0.032	0.00299	–	–
CCNC(=O)c1ccc(C(=C2CC3CCC(C2)N3)c2ccc(O)cc2)cc1	0.0045	0.265	–	–
CCNC(=O)c1ccc(/C(=C2\C[C@H]3CC[C@@H](C2)N3C)c2ccccc2)cc1	0.292	0.304	–	–
CCCNC(=O)c1ccc(C(=C2CC3CCC(C2)N3CCc2ccccc2)c2ccccc2)cc1	0.022	0.0016	–	–
C=CCN1[C@@H]2CC[C@H]1C/C(=C(\c1ccccc1)c1ccc(C(=O)NCC)cc1)C2	0.00772	0.0191	–	–
CCNC(=O)c1ccc(C(=C2CC3CCC(C2)N3Cc2c[nH]cn2)c2ccccc2)cc1	0.00388	0.101	–	–
CCNC(=O)c1ccc(C(=C2CC3CCC(C2)N3CCc2ccccc2)c2ccc(OC)cc2)cc1	0.0113	0.0061	–	–
NC(=O)c1ccc(C(=C2CC3CCC(C2)N3CCc2ccccc2)c2ccccc2)cc1	0.0359	0.0396	–	–
CCNC(=O)c1ccc(C(=C2CC3CCC(C2)N3Cc2[nH]cnc2C)c2ccccc2)cc1	0.0159	0.061	–	–
O=C(Nc1nccs1)c1ccc(C(=C2CC3CCC(C2)N3CCc2ccccc2)c2ccccc2)cc1	0.0495	0.053	–	–
CCNC(=O)c1ccc(C(=C2CC3CCC(C2)N3CCOc2ccccc2)c2ccccc2)cc1	0.0634	0.093	–	–
